# Patent US20260216142A1, “USES OF ZLN-005 AND RELATED COMPOUNDS” (priority 2022, published 2026)
# Tests used:
# THP-1 cells = experiment: Autophagy flux (LC3 conversion, Western blotting) in LPS model of THP-1; type: cell-based, human; conditions: 6 hours LPS followed by 2 or 6 hours autophagy inhibitor (50 nM bafilomycin A1 or 30 nM chloroquine)
# Procedure: Cells were incubated at 37° C. in a humidified 5% CO2 incubator. […] After 48 hours, the supernatant of the medium was carefully removed to avoid detaching the cells attached to the bottom of the plate and replaced with new medium containing 1 μM ZLN-005 or DMSO (0.1%) as a control. […] For PI3K inhibition, the cells were seeded in the plate and added 200 nM Wortmannin (AG-CN2-0023-M001, Adipogen Life Sciences Inc.).
# Protein levels were quantified using ImageJ™.
# [1] = test system: cecal ligation and perforation (CLP) model; experiment: CLP model of sepsis: survival and behavior; type: in vivo, C57BL/6 mice; conditions: 12 mg/kg i.p. daily Day 0 to Day 2
# Procedure: Cecal ligation and perforation was performed on C57BL/6 mice about 10 to 20 weeks of age. Mice were administered either ZLN-005 at 12 mg/kg (i.p.) or vehicle (DMSO) at the time of cecal ligation and perforation, 24 hours later, and 48 hours later (FIG. 1A).
# C57BL/6 mice were purchased from Shimizu Laboratory Supplies Co., Ltd. (Kyoto, Japan). Mice were housed in specific-pathogen-free conditions with free access to food and water. Mice were anesthetized by inhalation of isoflurane (099-06571, FUJIFILM Wako Pure Chemical Corporation, Tokyo, Japan). A midline incision was made, followed by externalization, and the cecum was then ligated at half the distance between the distal pole and the base of the cecum and punctured with a 21-gauge needle (NN-2116R, Terumo Corporation, Tokyo, Japan). Next, a small amount of fecal mass from the punctured cecum was gently squeezed out to ensure patency of punctures, the cecum was relocated, and 6/0 Ethicon PROLENE Suture (Ethicon, Inc., Raritan, NJ, USA) was used to close the peritoneum and skin. Sham-operated mice underwent only incision and cecum exteriorization. […]
# The results are presented as the means±standard deviations. The statistical significance of differences among groups was evaluated using parametric unpaired t tests for bar graphs. […]
# naïve THP-1 = experiment: Expression over time in naïve THP-1; type: cell-based, human
# CLP sepsis model = experiment: Echocardiographic measurement at 24 hours post-CLP; type: in vivo, mice; conditions: 24 hours after CLP
# Procedure: Chest hair was removed with cream one day before echocardiography was performed using VisualSonics Vevo®@2100 equipped with an 18- to 38-MHz probe (VisualSonics, Toronto, ON, Canada). Mice were anesthetized by inhalation of isoflurane at 24 hours post-CLP. The left ventricle was assessed in the parasternal short-axis view. Left ventricular end-systole or end-diastole was defined as the period when the left ventricular lumen was shortest or most dilated, respectively. Diastolic left ventricular (LV) internal diameters, systolic LV internal diameters, diastolic LV anterior wall, and diastolic LV posterior wall were measured from the LV M-mode tracing at the papillary muscle level. LV wall thickness was calculated as the average of anterior and posterior wall thicknesses.
Structure (SMILES),LC3-II and LC3-II/I ratios (THP-1 cells),mice alive at 72 hours ([1]; 72 hours post-CLP) [%],mice alive after 6 days ([1]; 6 days post-CLP) [%],"increase in expression at the protein level (naïve THP-1; naïve THP-1, 36 hours (data not shown)) [fold]","increase in expression at the mRNA level (naïve THP-1; naïve THP-1, 48 hours (data not shown)) [fold]",ejection fraction (CLP sepsis model) [%]
CO/C1=C\C(C)=C\[C@@H](C)[C@@H](O)[C@@H](C)C/C(C)=C/C=C/[C@H](OC)[C@@H]([C@@H](C)[C@@H](O)[C@H](C)[C@@]2(O)C[C@@H](O)[C@H](C)[C@@H](C(C)C)O2)OC1=O [bafilomycin A1],increasing with significant differences,,,,,
"CC(C)(C)c1ccc(-c2nc3ccccc3[nH]2)cc1 [ZLN-005, 2-(4-tert-butylphenyl)-1H-benzimidazole]",,40,30,2,2,~50
